The source of these data is patent EP3057949B1, “SECONDARY ALCOHOL QUINOLINYL MODULATORS OF ROR GAMMA T” (Janssen Pharmaceutica NV, priority 2013, dated 2015).

Structures can show the parent of a compound that is named as a salt.

Experiment [1] addresses T1, human RORγt ligand binding domain (RORγt LBD) (Homo sapiens, UniProt P51449).
T1 construct: His-tag (N); TurboTEV protease cleavage site (ENLYFQG) (N); made in house; host or cells: E. coli (pHIS1, modified pET vector)
T1 sequence (P51449 258-518): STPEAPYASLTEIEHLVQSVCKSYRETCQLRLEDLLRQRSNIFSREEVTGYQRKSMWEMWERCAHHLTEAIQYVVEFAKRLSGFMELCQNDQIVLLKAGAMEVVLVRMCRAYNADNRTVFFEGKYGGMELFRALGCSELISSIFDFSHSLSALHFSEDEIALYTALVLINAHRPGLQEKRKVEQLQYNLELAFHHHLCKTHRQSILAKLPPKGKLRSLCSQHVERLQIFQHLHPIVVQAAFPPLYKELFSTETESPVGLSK
The experiment is described as follows: ThermoFluor® Assay (RORγt thermal shift binding). The settings on record: 0.065 mg/mL RORγt, 60 µM 1,8-ANS, pH 7.0; estimated from concentration response curves. The protocol:
This approach is applicable to a wide variety of systems, and rigorous in theoretical interpretation through quantitation of equilibrium binding constants (KD).
The shift in the melting point described as a ΔTm is proportional to the concentration and affinity of the ligand. The compound potency may be compared as a rank order of either ATm values at a single compound concentration or in terms of KD values, estimated from concentration response curves.
ThermoFluor® experiments were carried out using instruments owned by Janssen Research and Discovery, L.L.C. through its acquisition of 3-Dimensional Pharmaceuticals, Inc. 1,8-ANS (Invitrogen) was used as a fluorescent dye. Protein and compound solutions are dispensed into black 384-well polypropylene PCR microplates (Abgene) and overlayed with silicone oil (1 µL, Fluka, type DC 200) to prevent evaporation.
Bar-coded assay plates are robotically loaded onto a thermostatically controlled PCR-type thermal block and then heated at a typical ramp-rate of 1 °C/minute for all experiments. Fluorescence was measured by continuous illumination with UV light (Hamamatsu LC6) supplied via fiber optic and filtered through a band-pass filter (380-400 nm; >6 OD cutoff). Fluorescence emission of the entire 384-well plate was detected by measuring light intensity using a CCD camera (Sensys, Roper Scientific) filtered to detect 500 ± 25 nm, resulting in simultaneous and independent readings of all 384 wells. Images were collected at each temperature, and the sum of the pixel intensity in a given area of the assay plate was recorded versus temperature. Reference wells contained RORyt without compounds, and the assay conditions were as follows: • 0.065 mg/mL RORγt • 60 µM 1,8-ANS • 100 mM Hepes, pH 7.0 • 10 mM NaCl • 2.5 mM GSH • 0.002% Tween-20
Project compounds were arranged in a pre-dosed mother plate (Greiner Bio-one) wherein compounds are serially diluted in 100% DMSO by 1:2 from a high concentration of 10 mM over 12 columns within a series (column 12 is a reference well containing DMSO, no compound). The compounds were robotically dispensed directly into assay plates (1x = 46 nL) using a Hummingbird capillary liquid handling instrument (Digilab). Following compound dispense, protein and dye in buffer was added to achieve the final assay volume of 3 µL, followed by 1 µL of silicone oil.

For a further experiment, the target named is T2, human RORγt LBD (Homo sapiens, UniProt P51449).
T2 construct: expressed in transfected cells; host or cells: HEK293T
T2 sequence (P51449 258-518): T1 sequence (P51449 258-518)
The experiment is described as follows: RORγt (LBD) Reporter Assay (GAL4 luciferase, HEK293T cells). In kind it is cell-based. As to conditions: for inhibition at 6 µM: HEK-293T; for IC50: compounds for 24 hours. How it is done: Compounds were assessed for RORgt functional modulation using either the RORgt ligand binding domain (LBD) reporter assay, or the RORgt full-length (FL) reporter assay.
A reporter assay was used to test functional activity of RORγt modulatory compounds on transcriptional activation driven by the RORγt LBD. Cells used in the assay were co-transfected with two constructs. The first construct, pBIND-RORγt LBD, contained the wild type human RORγt LBD fused to the DNA binding domain of the GAL4 protein. The second construct, pGL4.31 (Promega Cat no. C935A), contained multiple GAL4 responsive DNA elements upstream of firefly luciferase. […] The mutant construct was called pBIND-RORγt-AF2.
The pBIND vector contains the GAL4 DNA Binding Domain (GAL4 DBD) and the renilla luciferase gene under control of the SV40 promoter. Renilla luciferase expression serves as a control for transfection efficiency and cell viability.
The reporter assay was performed by transiently transfecting HEK293T cells with 5 µg of pBIND-RORγt LBD or pBIND-RORγt LBD-AF2 and 5 µg pGL4.31 (Promega Cat no. C935A) using Fugene 6 (Invitrogen Cat no. E2691) at a 1:6 ratio of DNA: Fugene 6 in a T-75 flask in which cells were at least 80% confluent. Twenty four hours after bulk transfection, cells were plated into 96-well plates at 50,000 cells/well in phenol-red free DMEM containing 5% Lipid Reduced FCS and Pen/Strep. Six hours after plating, cells were treated with compounds for 24 hours. Media was removed and cells were lysed with 50 µL 1x Glo Lysis Buffer (Promega). Dual Glo Luciferase Reagent (50 µL/well) was then added and firefly luciferase luminescence was read on an Envision after a ten minute incubation. Finally, Stop and Glo reagent (50 µL/well) was added and renilla luciferase luminescence was read on an Envision after a ten minute incubation. To calculate the effect of compounds on RORγt activity, the ratio of firefly to renilla luciferase was determined and plotted against compound concentration. Agonist compounds increase RORγt-driven luciferase expression, and antagonist or inverse agonist compounds decrease luciferase expression.
A general note: Reporter assays use an easily measured gene product as a stand-in for the process of interest.

One may read the Kd as the concentration at which binding is half-saturated. As a reminder, the inhibition is the relative decrease from the control value, in per cent. A word on the IC50: it is the concentration that inhibits the measured activity by half. Read a low IC50 as higher potency. With `COc1nc2c(C)cc(C(O)c3cncn3C)cc2c(Cl)c1Cc1ccc(S(C)(=O)=O)cc1` (stereo not drawn) [Example 10], the Kd in experiment [1] was 3000 nM. The inhibition at 6 µM on human RORγt LBD (6 µM compound) stood at 59%. Also, the IC50 against human RORγt LBD is roughly 6000 nM.

On to `COc1nc2ccc(C(O)c3cncn3C)cc2c(Cl)c1Cc1ccc(C(F)(F)F)cc1` (stereo not drawn) [Example 18a, (4-Chloro-2-methoxy-3-(4-(trifluoromethyl)benzyl)quinolin-6-yl)(1-methyl-1H-imidazol-5-yl)methanol], for which the Kd in experiment [1] is 240 nM. Also, the inhibition at 6 µM on human RORγt LBD (6 µM compound) is 96%. At human RORγt LBD, this molecule gave an IC50 of 380 nM.

Take `Cc1ccc(C(O)c2ccc3nc(N4CCC4)c(Cc4ccc(C(F)(F)F)cc4)c(Cl)c3c2)c(C)n1` (stereo not drawn) [Example 23a, {2-Azetidin-1-yl-4-chloro-3-[4-(trifluoromethyl)benzyl]quinolin-6-yl}(2,6-dimethylpyridin-3-yl)methanol]: in experiment [1], the Kd is 140 nM. For the same molecule, the inhibition at 6 µM against human RORγt LBD (6 µM compound) amounted to 95%. Also, half-maximal inhibition at human RORγt LBD (IC50) was put at 180 nM.

In the case of `Cn1cncc1C(O)c1ccc2nc(Cl)c(-c3ccccc3)c(Cl)c2c1` (stereo not drawn) [Example 2, (2,4-Dichloro-3-phenylquinolin-6-yl)(1-methyl-1H-imidazol-5-yl)methanol], the Kd in experiment [1] is 1600 nM. Further, the inhibition at 6 µM against human RORγt LBD (6 µM compound) came out at 12%. Moreover, the IC50 on human RORγt LBD was greater than 6000 nM.

On to `COc1nc2ccc(C(O)c3cnnn3C)cc2c(Cl)c1Cc1ccc(C(F)(F)F)cc1` (stereo not drawn) [Example 17a, (4-Chloro-2-methoxy-3-(4-(trifluoromethyl)benzyl)quinolin-6-yl)(1-methyl-1H-1,2,3-triazol-5-yl)methanol], for which the Kd in experiment [1] is 64 nM. For the same molecule, the inhibition at 6 µM against human RORγt LBD (6 µM compound) turned out to be 99%. On human RORγt LBD, this molecule gave an IC50 of 310 nM.

`OC(c1ccncc1)c1ccc2nc(Cl)c(Cc3ccccc3)c(Cl)c2c1` (stereo not drawn) [Example 24, (3-Benzyl-2,4-dichloroquinolin-6-yl)(pyridin-4-yl)methanole•TFA]: in experiment [1], the Kd was 230 nM. For the same molecule, on human RORγt LBD (6 µM compound), the inhibition at 6 µM was 41%. Further, the IC50 against human RORγt LBD was greater than 6000 nM.

`Cn1cncc1C(O)c1ccc2nc(Cl)c(-c3ccccc3Cl)c(Cl)c2c1` (stereo not drawn) [Example 3, (2,4-Dichloro-3-(2-chlorophenyl)quinolin-6-yl)(1-methyl-1H-imidazol-5-yl) methanol]: the Kd in experiment [1] was 450 nM.

In the case of `COc1nc2ccc(C(O)c3cnc(C)n3C)cc2c(Cl)c1Cc1ccc(C(F)(F)F)cc1` (stereo not drawn) [Example 15a, (4-Chloro-2-methoxy-3-(4-(trifluoromethyl)benzyl)quinolin-6-yl)(1,2-dimethyl-1H-imidazol-5-yl)methanol], the Kd in experiment [1] was 74 nM. At human RORγt LBD (6 µM compound), the inhibition at 6 µM is 101%. The molecule further registered an IC50 against human RORγt LBD of 43 nM.

On to `OC(c1ccncc1)c1ccc2nc(Cl)c(-c3ccccc3)c(Cl)c2c1` (stereo not drawn) [Example 25, (2,4-Dichloro-3-phenylquinolin-6-yl)(pyridin-4-yl)methanol•TFA], for which the Kd in experiment [1] is 1200 nM. Further, on human RORγt LBD (6 µM compound), the inhibition at 6 µM is 47%. For the same molecule, the IC50 against human RORγt LBD was greater than 6000 nM.

Turning to `Cc1ncc(C(O)c2ccc3nc(N4CCC4)c(Cc4ccc(-n5cccn5)cc4)c(Cl)c3c2)n1C` (single isomer, unassigned) [Example 21b, {2-Azetidin-1-yl-4-chloro-3-[4-(1H-pyrazol-1-yl)benzyl]quinolin-6-yl}(1,2-dimethyl-1H-imidazol-5-yl)methanol], the Kd in experiment [1] was 260 nM. Besides, the inhibition at 6 µM at human RORγt LBD (6 µM compound) was 88%. Also, the IC50 against human RORγt LBD was 690 nM.

As to `OC(c1ccc(Cl)cc1)c1ccc2nc(Cl)c(-c3ccccc3)c(Cl)c2c1` (stereo not drawn) [Example 35, (4-Chlorophenyl)(2,4-dichloro-3-phenylquinolin-6-yl)methanol], the Kd in experiment [1] was 25000 nM. For the same molecule, at human RORγt LBD (6 µM compound), the inhibition at 6 µM was 45%. This molecule also had an IC50 on human RORγt LBD greater than 6000 nM.

For the molecule `COc1nc2ccc(C(O)c3cncn3C)cc2c(Cl)c1Cc1ccc(C(F)(F)F)cc1` (single isomer, unassigned) [Example 18b, (4-Chloro-2-methoxy-3-(4-(trifluoromethyl)benzyl)quinolin-6-yl)(1-methyl-1H-imidazol-5-yl)methanol], the Kd in experiment [1] is 290 nM. Moreover, the inhibition at 6 µM against human RORγt LBD (6 µM compound) was found to be 98%. At human RORγt LBD, this molecule registered an IC50 of 510 nM.

Consider `COc1nc2ccc(C(O)c3ccc(C)nc3C)cc2c(Cl)c1Cc1ccc(C(F)(F)F)cc1` (stereo not drawn) [Example 14a, (4-Chloro-2-methoxy-3-(4-(trifluoromethyl)benzyl)quinolin-6-yl)(2,6-dimethylpyridin-3-yl)methanol], for which the Kd in experiment [1] is 71 nM.

As to `Cc1ncc(C(O)c2ccc3nc(Cl)c(-c4ccccc4)c(Cl)c3c2)n1C` (stereo not drawn) [Example 13, (2,4-Dichloro-3-phenylquinolin-6-yl)(1,2-dimethyl-1H-imidazol-5-yl)methanol], the Kd in experiment [1] was 1200 nM. The inhibition at 6 µM against human RORγt LBD (6 µM compound) stood at 43%. The IC50 at human RORγt LBD was greater than 6000 nM.

As to `Cc1noc(C)c1C(O)c1ccc2nc(Cl)c(-c3ccccc3)c(Cl)c2c1` (stereo not drawn) [Example 1, (2,4-Dichloro-3-phenylquinolin-6-yl)(3,5-dimethylisoxazol-4-yl)methanol], the Kd in experiment [1] is 550 nM. The inhibition at 6 µM on human RORγt LBD (6 µM compound) amounted to 48%. The IC50 on human RORγt LBD was greater than 6000 nM.

Take `COc1nc2ccc(C(O)C3CCN(C(C)=O)CC3)cc2c(Cl)c1Cc1ccc(C(F)(F)F)cc1` (stereo not drawn) [Example 6, (1-Acetylpiperidin4-yl){4-chloro-2-methoxy-3-[4-(trifluoromethyl)benzyl]quinolin-6-yl}methanol]: the Kd in experiment [1] is 220 nM. Also, the inhibition at 6 µM against human RORγt LBD (6 µM compound) worked out at 95%. The molecule also gave an IC50 against human RORγt LBD of 790 nM.

For `Cc1ncc(C(O)c2ccc3nc(N4CCC4)c(Cc4ccc(-n5cccn5)cc4)c(Cl)c3c2)n1C` (stereo not drawn) [Example 21a, {2-Azetidin-1-yl-4-chloro-3-[4-(1H-pyrazol-1-yl)benzyl]quinolin-6-yl)(1,2-dimethyl-1H-imidazol-5-yl)methanol], in experiment [1], the Kd was 200 nM. The inhibition at 6 µM against human RORγt LBD (6 µM compound) came out at 91%. In addition, the IC50 against human RORγt LBD was determined as 380 nM.

With `COc1nc2c(C)cc(C(O)c3cncn3C)cc2c(Cl)c1Cc1cccc(C(F)(F)F)c1` (stereo not drawn) [Example 11, (4-Chloro-2-methoxy-8-methyl-3-(3-(trifluoromethyl)benzyl)quinolin-6-yl)(1-methyl-1H-imidazol-5-yl)methanol], the Kd in experiment [1] is 150 nM. The inhibition at 6 µM at human RORγt LBD (6 µM compound) is 24%. On human RORγt LBD, this molecule gave an IC50 greater than 6000 nM.

On to `COc1nc2ccc(C(O)c3cnc(C)n3C)cc2c(Cl)c1Cc1ccc(F)cc1` (single isomer, unassigned) [Example 8c], for which, on human RORγt LBD (6 µM compound, 6 µM), the “RORγt (LBD) Reporter Assay, % inhibition @ 6 µM” value came to 37%.
